Values quoted from earlier work, collected in US20140221306A1 (Santen Pharmaceutical Co. Ltd, priority 2010, published 2014).

Key:
dry eye patients = settings: instillation of an ophthalmic solution; Cornea, 23(8), 784-792 (2004)
[1] = disclosed in Japanese Patent No. 3652707 (PTD 1)

Structure (SMILES) | corneal epithelium disorder of dry eye patients (dry eye patients) | effect on secretion of tears [1]
O=c1ccn([C@@H]2O[C@H](COP(=O)([O-])OP(=O)([O-])OP(=O)([O-])OP(=O)([O-])OC[C@H]3O[C@@H](n4ccc(=O)[nH]c4=O)[C@H](O)[C@@H]3O)[C@@H](O)[C@H]2O)c(=O)[nH]1.[Na+].[Na+].[Na+].[Na+] [diquafosol tetrasodium salt] | improved corneal epithelium disorder | –
O=c1ccn([C@@H]2O[C@H](COP(=O)(O)OP(=O)(O)OP(=O)(O)OP(=O)(O)OC[C@H]3O[C@@H](n4ccc(=O)[nH]c4=O)C(O)C3O)C(O)C2O)c(=O)[nH]1 (some centres unmarked) [Diquafosol, P^1,P^4-di(uridine-5′)tetraphosphate] | – | effect of stimulating secretion of tears
